Measurements published in ChEMBL document CHEMBL3526048, “In vitro metabolism of rivoglitazone, a novel peroxisome proliferator-activated receptor γ agonist, in rat, monkey, and human liver microsomes and freshly isolated hepatocytes” (Drug Metab Dispos, 2011).

What was measured:
Liver microsome [1] = assay: Drug level in Sprague-Dawley rat liver microsomes treated with [14C]-rivoglitazone at 20 uM after 2 to 4 hrs by radio-HPLC/LC-MS/MS analysis in presence of UDPGA, UDPGA/SAM and NADPH-generating system; assay type: ADME
Cytochrome P450 2D6 = Cytochrome P450 2D6 (Homo sapiens, UniProt P10635); assay: Activity of human CYP2D6 expressed in microsomes isolated from baculovirus infected insect cell assessed as enzyme-mediated 3-(4-((6-methoxy-1-methyl-1H-benzo[d]imidazol-2-yl)methoxy)phenyl)-2-(methylsulfonyl)propanamide formation at 20 uM after 2 hrs by radio-HPLC/LC-MS/MS analysis in presence of NADPH-generating system/SAM; assay type: ADME
[2] = Drug metabolism in rat hepatocytes assessed as formation of 2-hydroxy-3-(4-((6-methoxy-1-methyl-1H-benzo[d]imidazol-2-yl)methoxy)phenyl)propanamide at 30 uM after 3 hrs by radio-HPLC/LC-MS/MS analysis in presence of NADPH-generating system and NADPH-generating system/SAM; assay type: ADME, cell-based, Hepatocyte
[3] = Drug metabolism in rat hepatocytes assessed as formation of 3-(4-((6-methoxy-1-methyl-1H-benzo[d]imidazol-2-yl)methoxy)phenyl)-2-(methylthio)propanamide at 30 uM after 3 hrs by radio-HPLC/LC-MS/MS analysis in presence of NADPH-generating system/SAM; assay type: ADME, cell-based, Hepatocyte
[4] = Drug metabolism in cynomolgus monkey liver microsomes assessed as formation of 5-(4-((6-hydroxy-1-methyl-1H-benzo[d]imidazol-2-yl)methoxy)benzyl)thiazolidine-2,4-dione at 20 uM after 2 hrs by radio-HPLC/LC-MS/MS analysis in presence of NADPH-generating system and NADPH-generating system/SAM; assay type: ADME, Macaca fascicularis
[5] = target: T1, UDP-glucuronosyltransferase 1A8 (Homo sapiens, UniProt Q9HAW9); assay: Activity of human UGT1A8 expressed in microsomes isolated from baculovirus infected insect cell assessed as enzyme-mediated 2-mercapto-3-(4-((6-methoxy-1-methyl-1H-benzo[d]imidazol-2-yl)methoxy)phenyl)propanoic acid formation at 20 uM after 4 hrs by radio-HPLC/LC-MS/MS analysis in presence of UDPGA; assay type: ADME
T1 sequence (Q9HAW9 whole entry): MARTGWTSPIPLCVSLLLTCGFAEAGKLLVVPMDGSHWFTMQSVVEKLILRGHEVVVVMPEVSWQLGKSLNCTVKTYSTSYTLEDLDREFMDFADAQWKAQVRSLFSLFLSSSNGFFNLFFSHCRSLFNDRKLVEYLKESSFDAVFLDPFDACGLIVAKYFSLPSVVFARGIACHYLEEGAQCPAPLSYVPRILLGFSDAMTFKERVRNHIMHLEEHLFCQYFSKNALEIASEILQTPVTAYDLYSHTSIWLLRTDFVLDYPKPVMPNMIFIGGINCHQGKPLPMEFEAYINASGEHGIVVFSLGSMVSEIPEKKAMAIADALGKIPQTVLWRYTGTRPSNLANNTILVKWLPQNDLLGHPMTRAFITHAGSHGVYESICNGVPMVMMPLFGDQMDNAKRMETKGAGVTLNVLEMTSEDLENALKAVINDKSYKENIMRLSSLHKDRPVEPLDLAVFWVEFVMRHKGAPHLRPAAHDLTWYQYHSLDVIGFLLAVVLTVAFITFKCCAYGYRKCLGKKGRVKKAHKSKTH

[6] = Drug metabolism in rat hepatocytes assessed as formation of 3-(4-((6-methoxy-1-methyl-1H-benzo[d]imidazol-2-yl)methoxy)phenyl)-2-(methylthio)propanoic acid at 30 uM after 3 hrs by radio-HPLC/LC-MS/MS analysis in presence of NADPH-generating system/SAM and UDPGA/SAM; assay type: ADME, cell-based, Hepatocyte
[7] = target: T2, UDP-glucuronosyltransferase 1A7 (Homo sapiens, UniProt Q9HAW7); assay: Activity of human UGT1A7 expressed in microsomes isolated from baculovirus infected insect cell assessed as enzyme-mediated (2S,3S,4S,5R,6R)-3,4,5-trihydroxy-6-(5-(4-((6-methoxy-1-methyl-1H-benzo[d]imidazol-2-yl)methoxy)benzyl)-2,4-dioxothiazolidin-3-yl)tetrahydro-2H-pyran-2-carboxylic acid formation at 20 uM after 4 hrs by radio-HPLC/LC-MS/MS analysis in presence of UDPGA; assay type: ADME
T2 sequence (Q9HAW7 whole entry): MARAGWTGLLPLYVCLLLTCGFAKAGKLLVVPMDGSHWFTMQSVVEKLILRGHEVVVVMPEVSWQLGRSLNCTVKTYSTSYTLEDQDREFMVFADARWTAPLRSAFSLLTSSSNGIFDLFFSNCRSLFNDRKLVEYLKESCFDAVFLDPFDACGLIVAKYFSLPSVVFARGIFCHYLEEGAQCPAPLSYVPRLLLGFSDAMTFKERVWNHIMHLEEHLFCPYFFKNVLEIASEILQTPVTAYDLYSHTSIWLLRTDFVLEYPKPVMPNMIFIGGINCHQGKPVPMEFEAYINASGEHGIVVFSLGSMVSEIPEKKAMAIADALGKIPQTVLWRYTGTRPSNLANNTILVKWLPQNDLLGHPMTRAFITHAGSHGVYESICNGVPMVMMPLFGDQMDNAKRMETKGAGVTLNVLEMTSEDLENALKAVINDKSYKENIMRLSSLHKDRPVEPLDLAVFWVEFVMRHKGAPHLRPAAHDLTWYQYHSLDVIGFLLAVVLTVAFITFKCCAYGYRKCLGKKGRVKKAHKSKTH

Liver microsome [8] = assay: Drug metabolism in Sprague-Dawley rat liver microsomes assessed as formation of 2-hydroxy-3-(4-((6-methoxy-1-methyl-1H-benzo[d]imidazol-2-yl)methoxy)phenyl)propanamide at 20 uM after 2 hrs by radio-HPLC/LC-MS/MS analysis in presence of NADPH-generating system and NADPH-generating system/SAM; assay type: ADME
Cytochrome P450 2C9 = Cytochrome P450 2C9 (Homo sapiens, UniProt P11712); assay: Activity of human CYP2C9 expressed in microsomes isolated from baculovirus infected insect cell assessed as enzyme-mediated 3-(4-((6-methoxy-1-methyl-1H-benzo[d]imidazol-2-yl)methoxy)phenyl)-2-(methylthio)propanamide formation at 20 uM after 2 hrs by radio-HPLC/LC-MS/MS analysis in presence of NADPH-generating system/SAM; assay type: ADME
[9] = Drug metabolism in cynomolgus monkey liver microsomes assessed as formation of 3-(4-((6-methoxy-1-methyl-1H-benzo[d]imidazol-2-yl)methoxy)phenyl)-2-(methylsulfinyl)propanamide at 20 uM after 2 hrs by radio-HPLC/LC-MS/MS analysis in presence of NADPH-generating system/SAM; assay type: ADME, Macaca fascicularis

Cytochrome P450 2C9, sequence (P11712 whole entry): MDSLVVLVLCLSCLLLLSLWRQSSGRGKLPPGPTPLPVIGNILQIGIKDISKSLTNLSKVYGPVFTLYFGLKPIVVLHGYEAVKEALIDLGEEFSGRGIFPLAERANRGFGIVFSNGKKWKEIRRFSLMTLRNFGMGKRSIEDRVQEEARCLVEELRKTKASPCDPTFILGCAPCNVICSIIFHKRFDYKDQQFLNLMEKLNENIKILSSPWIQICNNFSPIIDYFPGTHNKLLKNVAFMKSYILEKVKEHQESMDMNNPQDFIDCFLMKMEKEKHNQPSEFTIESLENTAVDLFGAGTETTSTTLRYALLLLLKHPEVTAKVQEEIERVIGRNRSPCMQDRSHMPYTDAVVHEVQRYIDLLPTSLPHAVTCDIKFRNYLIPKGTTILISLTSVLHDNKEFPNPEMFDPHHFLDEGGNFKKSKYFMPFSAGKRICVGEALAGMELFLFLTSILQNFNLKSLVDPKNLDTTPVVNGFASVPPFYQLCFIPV
Cytochrome P450 2D6, sequence (P10635 whole entry): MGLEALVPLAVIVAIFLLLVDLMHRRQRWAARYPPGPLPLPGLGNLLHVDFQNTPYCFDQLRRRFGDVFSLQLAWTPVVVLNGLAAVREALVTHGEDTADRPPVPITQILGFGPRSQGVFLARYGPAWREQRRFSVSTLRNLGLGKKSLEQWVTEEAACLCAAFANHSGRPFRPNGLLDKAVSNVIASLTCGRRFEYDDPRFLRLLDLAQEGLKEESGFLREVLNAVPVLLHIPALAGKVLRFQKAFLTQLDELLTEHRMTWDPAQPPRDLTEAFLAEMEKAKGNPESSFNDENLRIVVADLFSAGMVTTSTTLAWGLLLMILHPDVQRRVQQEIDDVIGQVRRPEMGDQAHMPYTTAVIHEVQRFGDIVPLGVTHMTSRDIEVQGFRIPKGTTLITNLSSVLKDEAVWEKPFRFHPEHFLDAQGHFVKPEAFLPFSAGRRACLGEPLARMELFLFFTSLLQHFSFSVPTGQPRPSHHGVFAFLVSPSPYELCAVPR

Drug metabolism (Liver microsome [1]) | Drug metabolism (Cytochrome P450 2D6) | Drug metabolism [2] | Drug metabolism [3] | Drug metabolism [4] | Drug metabolism [5] | Drug metabolism [6] | Drug metabolism [7] | Drug metabolism (Liver microsome [8]) | Drug metabolism (Cytochrome P450 2C9) | Drug metabolism [9] | SMILES
metabolite_detected | – | – | – | – | – | – | – | – | – | – | COc1ccc2nc(COc3ccc(CC(S)C(=O)O)cc3)n(C)c2c1 (stereo unspecified)
– | metabolite_not_detected | metabolite_not_detected | metabolite_detected | metabolite_detected | metabolite_not_detected | metabolite_not_detected | metabolite_not_detected | metabolite_detected | metabolite_not_detected | metabolite_detected | COc1ccc2nc(COc3ccc(C[14CH]4SC(=O)NC4=O)cc3)n(C)c2c1.Cl (racemic)
